Consider eleven molecules from patent US11525155B2, “Stabilisation of biological samples” (QIAGEN GmbH, priority 2013, dated 2022).

Non-standard residues stand in square brackets, D forms with d. *: point of attachment. Nle = CCCC[C@H](N)C(=O)O; Cbz = O=C(OCc1ccccc1)*; CH2F = FC*

The target in one data set is T1, caspase-3 (Homo sapiens, UniProt P42574).
T1 sequence (P42574 29-175 limits assumed): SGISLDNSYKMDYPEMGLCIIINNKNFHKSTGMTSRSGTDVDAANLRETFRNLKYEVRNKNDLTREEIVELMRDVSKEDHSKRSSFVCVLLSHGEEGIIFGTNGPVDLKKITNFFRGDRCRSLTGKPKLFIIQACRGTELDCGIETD
T1 sequence (P42574 176-277 limits assumed): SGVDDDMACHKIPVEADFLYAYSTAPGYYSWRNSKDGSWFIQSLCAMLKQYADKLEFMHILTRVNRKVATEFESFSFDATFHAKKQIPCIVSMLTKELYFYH
The conditions noted are these: cited from earlier work.

Another data set addresses T2, caspase-7 (Homo sapiens, UniProt P55210).
T2 sequence (P55210 24-198 limits assumed): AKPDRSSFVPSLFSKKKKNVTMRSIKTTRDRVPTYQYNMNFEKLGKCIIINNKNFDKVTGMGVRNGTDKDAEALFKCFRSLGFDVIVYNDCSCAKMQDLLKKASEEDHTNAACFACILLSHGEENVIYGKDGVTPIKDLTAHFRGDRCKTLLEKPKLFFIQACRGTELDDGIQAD
T2 sequence (P55210 207-303 limits assumed): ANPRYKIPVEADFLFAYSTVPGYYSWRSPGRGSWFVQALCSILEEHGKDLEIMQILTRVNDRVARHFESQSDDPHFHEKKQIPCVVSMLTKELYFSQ
As to conditions: cited from earlier work.

Data set [1] has as its system transcripts of FOS, IL1B, IL8 and TP53. Briefly: Transcript level stabilisation in blood samples, real time RT-PCR monoplex assays. The class given is cell-based. The conditions noted are these: EDTA blood, 2% (w/v) N-methylacetamide, one and three days at RT.
The subject of another data set is 18S ribosomal DNA. The data set can be described thus: Stabilization of extracellular nucleic acid population in whole blood, 18S rDNA qPCR (66 bp and 500 bp amplicon). The class given is cell-based, human. The conditions noted are these: 7.2 mg/ml K2 EDTA, 3 and 6 days RT.
For data set [2] the following is noted: buffer; cited from earlier work.
Another data set relates to red blood cells. The data set can be described thus: Hemolysis in stabilized blood samples. As to conditions: butanamide 0.5% (w/v) to 3.5% (w/v) in blood mixture. The class given is cell-based.
Data set [3] deals with white blood cells. Briefly: Microscopic evaluation of blood smears (cell morphology/integrity). As to conditions: EDTA blood, final 5% v/v formamide, 0.5× MOPS pH5.5, RT up to three days. The class given is cell-based.
Data set [4] concerns white blood cells. The data set can be described thus: Flow cytometry analysis of cell integrity. The class given is cell-based. As to conditions: EDTA blood mixed with test solution (5% v/v formamide). On the procedure: FIG. 6: Flow cytometry (FC) analysis of peripheral blood samples of one donor of example 1. Blood was directly drawn into BD EDTA tubes and PreAnalytiX PAXgene Blood RNA Tubes (PAXgene). […] Immediately after collection and treatment of samples, blood aliquots were analysed without incubation (0 h samples), while remaining samples were incubated at RT for one and three days (24 h and 72 h samples) prior to FC analysis. Shown per picture are the size (x-axis=forward scatter) and granularity (y-axis=sideward scatter) of 10,000 events per sample aliquot tested that contain signals of cells, cell debris and particles. The different populations of white blood cells that are distinguishable from each other in FC analysis (L, M, NG) and the cell-free fraction (D) are indicated by circles for the (+) control (EDTA) sample. They are as follows:
Where indicated, cell morphology was investigated by microscopic evaluation of blood smears and cell integrity by flow cytometry (FC).
The results obtained by microscopic analysis were verified by the analysis of cell integrity with flow cytometry. […] However, not all white blood cells may be equally well stabilized during longer stabilization periods. However, intact cells were detected and the detected cell populations are important for certain diagnostic applications which aim e.g. at the analysis of lymphocytes.

The target in a further data set is T3, calpain I (Homo sapiens, UniProt P07384).
T3 sequence (P07384 1-714): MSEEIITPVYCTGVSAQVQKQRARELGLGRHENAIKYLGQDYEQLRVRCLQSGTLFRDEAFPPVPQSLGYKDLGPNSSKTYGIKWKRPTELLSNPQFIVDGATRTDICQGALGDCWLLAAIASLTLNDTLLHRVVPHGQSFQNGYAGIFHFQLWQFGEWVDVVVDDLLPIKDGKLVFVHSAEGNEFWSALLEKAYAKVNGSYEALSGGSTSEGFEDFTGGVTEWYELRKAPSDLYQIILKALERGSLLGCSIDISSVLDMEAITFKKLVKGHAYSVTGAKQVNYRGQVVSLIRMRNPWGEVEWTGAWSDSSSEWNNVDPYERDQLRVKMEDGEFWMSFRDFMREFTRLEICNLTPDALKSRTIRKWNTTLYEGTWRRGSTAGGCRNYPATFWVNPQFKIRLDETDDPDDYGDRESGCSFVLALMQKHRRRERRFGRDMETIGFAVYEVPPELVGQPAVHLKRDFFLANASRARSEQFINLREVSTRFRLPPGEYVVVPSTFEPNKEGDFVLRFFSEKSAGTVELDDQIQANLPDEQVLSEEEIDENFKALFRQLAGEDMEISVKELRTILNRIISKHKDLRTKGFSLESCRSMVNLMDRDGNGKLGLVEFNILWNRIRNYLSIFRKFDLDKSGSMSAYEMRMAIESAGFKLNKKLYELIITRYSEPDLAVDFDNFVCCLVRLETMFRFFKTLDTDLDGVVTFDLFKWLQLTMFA
T3 sequence (P04632 1-268 partner): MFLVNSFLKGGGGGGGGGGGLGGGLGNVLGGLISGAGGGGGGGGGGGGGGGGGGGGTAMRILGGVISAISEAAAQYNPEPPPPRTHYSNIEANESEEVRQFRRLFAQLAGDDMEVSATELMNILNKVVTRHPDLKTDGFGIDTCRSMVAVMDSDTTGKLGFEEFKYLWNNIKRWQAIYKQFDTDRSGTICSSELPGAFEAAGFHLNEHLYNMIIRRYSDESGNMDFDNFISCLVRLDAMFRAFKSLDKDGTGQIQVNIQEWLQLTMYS
The conditions noted are these: cited from earlier work.

A further data set deals with T4, calpain II (Homo sapiens, UniProt P17655).
T4 sequence (P17655 1-700): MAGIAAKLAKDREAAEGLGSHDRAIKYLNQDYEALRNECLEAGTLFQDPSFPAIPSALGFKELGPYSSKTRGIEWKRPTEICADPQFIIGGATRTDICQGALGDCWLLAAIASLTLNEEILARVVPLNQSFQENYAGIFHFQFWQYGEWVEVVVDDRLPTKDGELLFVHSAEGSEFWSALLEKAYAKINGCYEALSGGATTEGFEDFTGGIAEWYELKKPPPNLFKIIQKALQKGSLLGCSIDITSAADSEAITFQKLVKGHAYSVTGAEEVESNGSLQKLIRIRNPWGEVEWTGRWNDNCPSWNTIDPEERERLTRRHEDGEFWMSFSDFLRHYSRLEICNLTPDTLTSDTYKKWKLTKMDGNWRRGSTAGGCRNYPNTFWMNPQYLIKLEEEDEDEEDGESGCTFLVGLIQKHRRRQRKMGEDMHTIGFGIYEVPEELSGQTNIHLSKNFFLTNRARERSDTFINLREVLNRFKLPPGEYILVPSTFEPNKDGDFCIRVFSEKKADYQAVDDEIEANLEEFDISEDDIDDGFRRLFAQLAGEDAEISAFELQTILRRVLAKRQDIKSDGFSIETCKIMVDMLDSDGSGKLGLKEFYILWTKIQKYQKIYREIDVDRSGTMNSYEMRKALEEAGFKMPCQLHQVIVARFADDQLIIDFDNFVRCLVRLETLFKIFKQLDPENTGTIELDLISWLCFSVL
T4 sequence (P04632 1-268 partner): T3 sequence (P04632 1-268 partner)
The conditions noted are these: cited from earlier work.

The target of another data set is cathepsin L (Homo sapiens, UniProt P07711). The conditions noted are these: cited from earlier work.
Another data set deals with apoptosis. The conditions noted are these: cited from earlier work.
The mark [5] stands for this setting: amide in different concentrations with 1 μM Quinoline-Val-Asp-CH2-OPH (caspase inhibitor).
The mark [6] stands for this setting: amide alone in different concentrations, without caspase inhibitor.

Chain of cathepsin L (P07711 114-333, species assumed): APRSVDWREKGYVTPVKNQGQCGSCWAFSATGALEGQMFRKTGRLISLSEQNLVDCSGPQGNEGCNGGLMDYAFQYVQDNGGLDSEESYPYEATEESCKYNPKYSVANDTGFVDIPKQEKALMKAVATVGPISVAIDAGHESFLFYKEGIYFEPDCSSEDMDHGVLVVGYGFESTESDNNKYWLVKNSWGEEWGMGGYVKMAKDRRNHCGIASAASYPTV
Description for 18S ribosomal DNA: Blood obtained from donors was collected into 10 ml K2 EDTA tubes (BD). 4.5 ml of the respectively collected blood was mixed with 0.9 ml of different stabilization solutions (see below examples on the details of the tested stabilization solutions).
All stabilized blood samples were set up in triplicates per condition and test time point. At time point 0 (reference), immediately after mixing the stabilization solution and blood, plasma was generated and the circulating extracellular DNA was extracted. The residual stabilized blood sample was stored for three days and six days at room temperature.
As a reference control, the EDTA stabilized blood sample (collected in K2 EDTA tubes without further additives) was also stored for 3 and 6 days. […] DMAA stabilized samples as tested herein always included additionally a caspase inhibitor. No DMAA containing stabilizing solutions without caspase inhibitor were tested in the subsequent examples.
Plasma was generated from the stabilized and unstabilized (EDTA) blood samples by inverting the blood containing tubes for four times. Then, the tubes were centrifuged for 10 minutes at 1900×g at 4° C. 2.5 ml of the plasma fraction was transferred into a fresh 15 ml falcon tube and centrifuged for 10 minutes at 16.000×g at 4° C. 2 ml of the respectively cleared plasma was used for extracellular nucleic acid isolation using the QIAamp circulating nucleic acid kit (QIAGEN) according to the manufacturer's instructions.
The isolated extracellular DNA was analyzed using two different qPCR assays, targeting different fragment lengths of the 18S ribosomal DNA:
Cycle threshholds of the individual samples were translated into amount of gDNA in the eluate, according to a gDNA standard curve. The gDNA amount of the storage time points was compared to the time zero gDNA level from the same donor and is shown as fold increase in the figures. Especially the increase of the 500 bp fragment in the plasma fraction of the blood sample after storage is an indication for a lysis/destruction of white blood cells. Thus, the lower the amount of released 500 bp DNA, the better the performance of the stabilization method.
The figures corresponding to the subsequently described examples show the increase of DNA relative to time point 0 with the different stabilization solutions (fold change) using different amplicon lengths of 18S rRNA gene. Bars indicate the mean of the triplicate samples per condition and test time point.

For the molecule `COC[C@@H]1CCCN1S(=O)(=O)c1ccc2c(c1)C(=O)C(=O)N2` [Caspase-3/7 Inhibitor I], the results for the Ki on caspase-3 and on caspase-7 were 60 nM and 170 nM, respectively.

As for `CNC(C)=O` [N-methylacetamide], the “stabilization of transcript levels of FOS, IL1B, IL8, TP53” value in data set [1] was “effective in stabilizing transcript levels for up to three days”. Further, the “increase in 18S rDNA in plasma (stabilization of extracellular nucleic acid population)” value (shortened to “increase in 18S rDNA in plasma”) with 18S ribosomal DNA (setting [5]) is “significantly reduced increase in 18S rDNA”.

Take `CNC=O` [N-methylformamide]: the “increase in 18S rDNA in plasma” value in the data set on 18S ribosomal DNA (setting [5]) was “significantly reduced increase in 18S rDNA”.

Take `N=c1sc2c(n1CC(=O)c1ccc([N+](=O)[O-])cc1)CCCC2` [Pifithrin-α, p-Nitro]: the t1/2 result in data set [2] is “biological systems (t1/2 = 8h in neuron culture medium at 37° C)”.

As to `CC(N)=O` [acetamide], the “increase in 18S rDNA in plasma” value in the data set on 18S ribosomal DNA (setting [5]) is given as “significantly reduced increase in 18S rDNA”.

`CCCC(N)=O` [butanamide]: the “increase in 18S rDNA in plasma” value is “significantly reduced increase in 18S rDNA” with 18S ribosomal DNA (setting [6]) and “uniform stabilization results were obtained” in the data set with 18S ribosomal DNA (setting [5]). Besides, in the data set with red blood cells, the “hemolysis of the red blood cells contained in the blood sample” value was “prevents the hemolysis”.

With `NC=O` [formamide], in the data set on white blood cells [3], the “white blood cell integrity, microscopy of blood smears” value was “did not act lytic on WBC”. The “lysis of lymphocytes and monocytes, flow cytometry” value in the data set on white blood cells [4] (RT up to three days) is “not affected by lysis”. Moreover, the “lysis of neutrophilic granulocytes, flow cytometry” value with white blood cells [4] (longer storage at RT) is recorded as “Some lysis appeared to have occurred”. In addition, the “increase in 18S rDNA in plasma” value was “significantly reduced increase in 18S rDNA” with 18S ribosomal DNA (setting [6]) and “uniform stabilization results were obtained” in the data set on 18S ribosomal DNA (setting [5]).

On to `CCC(N)=O` [propanamide], for which, in the data set on 18S ribosomal DNA (setting [5]), the “increase in 18S rDNA in plasma” value is “significantly reduced increase in 18S rDNA”.

On to Ac-Leu-Leu-[Nle]-aldehyde, for which the Ki at calpain I was 190 nM; on calpain II, 150 nM; at cathepsin L, 0.5 nM.

With “Cbz-Leu-Leu-Tyr-CH2F [Calpain Inhibitor IV]”, the “k2 calpain II” value at calpain II (irreversible inhibitor) is given as 28,900 M-1s-1). Also acts as an inhibitor of cathepsin L (k2 =. The “k2 cathepsin L” value at cathepsin L was 680,000 M-1s-1).

Consider Quinoline-Val-Asp-CH2-OPH [Q-VD-OPh], for which, in the data set with apoptosis, the “effectiveness in preventing apoptosis compared with Z-VAD-FMK” value was “even more effective”.
